# Results: publication PMC3514653 (Neuromodulation : journal of the International …, 2012)
# Tests used:
# Male beagle dogs = settings: dog, in vivo
# [1] = dog; intrathecal; cited from earlier work
# [2] = dog, in vivo
compound,measurement,setting,value
CSCC[C@@H]1NC(=O)[C@H](CC(C)C)NC(=O)[C@H](CCCNC(=N)N)NC(=O)[C@H](CO)NC(=O)[C@@H]2CSSC[C@@H]3NC(=O)[C@H](CO)NC(=O)CNC(=O)[C@H]([C@@H](C)O)NC(=O)[C@H](CSSC[C@H](N)C(=O)N[C@@H](CCCCN)C(=O)NCC(=O)N[C@@H](CCCCN)C(=O)NCC(=O)N[C@@H](C)C(=O)N[C@@H](CCCCN)C(=O)N2)NC(=O)[C@H](CSSC[C@@H](C(N)=O)NC(=O)[C@H](CCCCN)NC(=O)CNC(=O)[C@H](CO)NC(=O)[C@H](CCCNC(=N)N)NC3=O)NC(=O)[C@H](CC(=O)O)NC(=O)[C@H](Cc2ccc(O)cc2)NC1=O [Ziconotide],"Decreased arousal and activity (remained responsive), dogs affected",Male beagle dogs,All 5 dogs
O=C(c1ccccc1)c1ccc2n1CCC2C(=O)O (stereo not drawn) [ketorolac],T1/2 (CSF elimination) in this model,[1],54 min
inulin [[^3H]Inulin],T1/2 α in LCSF,[2],9.6 min
